Consider 1 compound from paper PMC11243177, “The Discovery, Molecular Cloning, and Characterization of Dextransucrase LmDexA and Its Active Truncated Mutant from Leuconostoc mesenteroides NN710” (Molecules, 2024).

Each structure is given as a SMILES string.

This assay addresses T1, ΔN190LmDexA (Leuconostoc mesenteroides, UniProt Q03VD8).
T1 construct: gene LEUM_1747; N-terminal 190 residues removed (signal peptide and variable region); 1372 aa, theoretical 150 kDa; borders 191-1562 derived from printed lengths
The assay can be described thus: DNS assay of released reducing sugar (fructose), Michaelis-Menten fit. The assay is classed as biochemical. As to conditions: pH 5.6, 30 °C, 20 mM sodium acetate, 3-300 mM sucrose, 30 min.

T1 sequence (Q03VD8 entry or part of it, stated change not applied): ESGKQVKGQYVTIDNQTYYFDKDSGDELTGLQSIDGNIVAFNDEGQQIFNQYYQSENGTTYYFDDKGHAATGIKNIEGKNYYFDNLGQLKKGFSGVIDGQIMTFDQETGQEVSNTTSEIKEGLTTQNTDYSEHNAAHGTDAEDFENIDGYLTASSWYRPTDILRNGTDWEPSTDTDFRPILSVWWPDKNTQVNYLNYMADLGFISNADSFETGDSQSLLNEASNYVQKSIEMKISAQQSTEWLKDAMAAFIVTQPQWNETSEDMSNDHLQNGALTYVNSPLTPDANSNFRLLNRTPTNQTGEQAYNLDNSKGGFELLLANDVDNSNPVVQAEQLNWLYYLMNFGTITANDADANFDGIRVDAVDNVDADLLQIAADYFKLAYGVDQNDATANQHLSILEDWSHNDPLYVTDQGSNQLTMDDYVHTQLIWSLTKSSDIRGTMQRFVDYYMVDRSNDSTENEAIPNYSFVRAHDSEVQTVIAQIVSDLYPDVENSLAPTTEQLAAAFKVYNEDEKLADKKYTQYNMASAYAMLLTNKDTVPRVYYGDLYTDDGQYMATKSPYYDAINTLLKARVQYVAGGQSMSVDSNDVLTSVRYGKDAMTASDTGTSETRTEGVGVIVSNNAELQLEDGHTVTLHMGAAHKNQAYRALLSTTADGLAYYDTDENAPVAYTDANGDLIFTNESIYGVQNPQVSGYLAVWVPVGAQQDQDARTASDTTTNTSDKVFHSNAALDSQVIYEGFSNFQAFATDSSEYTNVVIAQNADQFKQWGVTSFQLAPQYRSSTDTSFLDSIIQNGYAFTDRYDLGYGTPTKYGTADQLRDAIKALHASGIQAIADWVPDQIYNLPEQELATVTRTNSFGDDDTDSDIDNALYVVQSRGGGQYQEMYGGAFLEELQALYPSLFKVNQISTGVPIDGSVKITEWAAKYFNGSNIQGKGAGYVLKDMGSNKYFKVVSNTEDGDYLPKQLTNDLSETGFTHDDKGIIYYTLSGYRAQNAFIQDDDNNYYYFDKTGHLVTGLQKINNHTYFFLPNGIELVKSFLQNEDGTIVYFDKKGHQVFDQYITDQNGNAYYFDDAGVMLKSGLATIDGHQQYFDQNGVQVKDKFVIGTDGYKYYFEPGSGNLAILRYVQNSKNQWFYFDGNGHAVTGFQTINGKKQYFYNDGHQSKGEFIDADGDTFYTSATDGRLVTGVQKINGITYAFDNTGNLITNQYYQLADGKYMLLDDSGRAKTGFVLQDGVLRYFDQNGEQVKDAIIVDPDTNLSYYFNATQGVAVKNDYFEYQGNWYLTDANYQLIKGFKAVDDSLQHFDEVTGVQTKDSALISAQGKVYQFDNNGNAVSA

For the compound `OC[C@H]1O[C@@](CO)(O[C@H]2O[C@H](CO)[C@@H](O)[C@H](O)[C@H]2O)[C@@H](O)[C@@H]1O` [sucrose], the Michaelis constant (Km) (commonly the concentration of substrate that gives half-maximal velocity) amounted to 13.7 mM.
